The source made the active and inactive calls. The calls are words filed in the database; no cut-off is given here.
What was measured:
[1] = target: T1, Protein cereblon/Tyrosine-protein phosphatase non-receptor type 1 (Homo sapiens, UniProt P18031+Q96SW2); assay: PROTAC activity at PTP1B/CRBN in insulin treated human HepG2 cells assessed as protein degradation at 5 nM incubated for 48 hrs by Western blot analysis relative to control; format: cell-based
Target sequence in this assay (P18031 whole entry, looked up): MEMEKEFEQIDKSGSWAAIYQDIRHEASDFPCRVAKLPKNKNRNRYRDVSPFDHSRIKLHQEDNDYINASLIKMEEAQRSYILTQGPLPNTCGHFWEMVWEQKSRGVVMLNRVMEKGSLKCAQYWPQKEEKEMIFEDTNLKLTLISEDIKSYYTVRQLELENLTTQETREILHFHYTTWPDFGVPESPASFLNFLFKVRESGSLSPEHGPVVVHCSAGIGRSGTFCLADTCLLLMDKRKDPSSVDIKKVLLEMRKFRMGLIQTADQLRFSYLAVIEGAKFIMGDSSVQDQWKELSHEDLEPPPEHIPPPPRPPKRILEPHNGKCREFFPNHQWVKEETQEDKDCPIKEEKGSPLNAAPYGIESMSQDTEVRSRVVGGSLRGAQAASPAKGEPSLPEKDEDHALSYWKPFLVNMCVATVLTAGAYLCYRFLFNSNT
Target sequence in this assay (Q96SW2 whole entry, looked up): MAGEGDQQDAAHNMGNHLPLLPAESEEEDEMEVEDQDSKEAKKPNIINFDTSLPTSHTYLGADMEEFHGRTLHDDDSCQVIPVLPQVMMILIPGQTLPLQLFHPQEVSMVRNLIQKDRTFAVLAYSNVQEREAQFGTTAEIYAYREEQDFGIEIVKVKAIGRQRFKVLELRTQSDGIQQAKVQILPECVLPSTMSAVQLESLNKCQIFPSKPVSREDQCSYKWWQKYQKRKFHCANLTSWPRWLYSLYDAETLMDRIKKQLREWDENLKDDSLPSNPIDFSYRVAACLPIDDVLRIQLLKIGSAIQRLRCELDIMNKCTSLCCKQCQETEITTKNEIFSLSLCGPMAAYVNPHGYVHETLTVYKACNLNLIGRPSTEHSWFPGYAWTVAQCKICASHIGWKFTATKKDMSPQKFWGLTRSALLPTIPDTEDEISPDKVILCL

[2] = target: T1, Protein cereblon/Tyrosine-protein phosphatase non-receptor type 1; assay: PROTAC activity at PTP1B/CRBN in insulin treated human HepG2 cells assessed as protein degradation at 50 nM incubated for 48 hrs by Western blot analysis relative to control; format: cell-based
Target sequence in this assay (P18031 whole entry, looked up): as the sequence (P18031 whole entry, looked up) above
Target sequence in this assay (Q96SW2 whole entry, looked up): as the sequence (Q96SW2 whole entry, looked up) above

[3] = target: T1, Protein cereblon/Tyrosine-protein phosphatase non-receptor type 1; assay: PROTAC activity at PTP1B/CRBN in insulin treated human HepG2 cells assessed as protein degradation at 500 nM incubated for 48 hrs by Western blot analysis relative to control; format: cell-based
Target sequence in this assay (P18031 whole entry, looked up): as the sequence (P18031 whole entry, looked up) above
Target sequence in this assay (Q96SW2 whole entry, looked up): as the sequence (Q96SW2 whole entry, looked up) above

[4] = target: T1, Protein cereblon/Tyrosine-protein phosphatase non-receptor type 1; assay: PROTAC activity at PTP1B/CRBN in insulin treated human HepG2 cells assessed as protein degradation at 5000 nM incubated for 48 hrs by Western blot analysis relative to control; format: cell-based
Target sequence in this assay (P18031 whole entry, looked up): as the sequence (P18031 whole entry, looked up) above
Target sequence in this assay (Q96SW2 whole entry, looked up): as the sequence (Q96SW2 whole entry, looked up) above

[5] = target: T1, Protein cereblon/Tyrosine-protein phosphatase non-receptor type 1; assay: PROTAC activity at PTP1B/CRBN in insulin treated human HepG2 cells assessed as protein degradation incubated for 48 hrs by Western blot analysis; format: cell-based
[6] = target: T1, Protein cereblon/Tyrosine-protein phosphatase non-receptor type 1; assay: PROTAC activity at PTP1B/CRBN in insulin treated human HepG2 cells assessed as protein degradation incubated for 72 hrs by Western blot analysis; format: cell-based
[7] = target: T1, Protein cereblon/Tyrosine-protein phosphatase non-receptor type 1; assay: PROTAC activity at PTP1B/CRBN in insulin treated human HepG2 cells assessed as protein degradation at 1 nM incubated for 48 hrs by Western blot analysis relative to control; format: cell-based
Target sequence in this assay (P18031 whole entry, looked up): as the sequence (P18031 whole entry, looked up) above
Target sequence in this assay (Q96SW2 whole entry, looked up): as the sequence (Q96SW2 whole entry, looked up) above

[8] = target: T1, Protein cereblon/Tyrosine-protein phosphatase non-receptor type 1; assay: PROTAC activity at PTP1B/CRBN in insulin treated human HepG2 cells assessed as protein degradation at 1 nM incubated for 72 hrs by Western blot analysis relative to control; format: cell-based
Target sequence in this assay (P18031 whole entry, looked up): as the sequence (P18031 whole entry, looked up) above
Target sequence in this assay (Q96SW2 whole entry, looked up): as the sequence (Q96SW2 whole entry, looked up) above

[9] = target: T1, Protein cereblon/Tyrosine-protein phosphatase non-receptor type 1; assay: PROTAC activity at PTP1B/CRBN in insulin treated human HepG2 cells assessed as protein degradation at 5 nM incubated for 72 hrs by Western blot analysis relative to control; format: cell-based
[10] = target: T1, Protein cereblon/Tyrosine-protein phosphatase non-receptor type 1; assay: PROTAC activity at PTP1B/CRBN in insulin treated human HepG2 cells assessed as protein degradation at 25 nM incubated for 48 hrs by Western blot analysis relative to control; format: cell-based
[11] = target: T1, Protein cereblon/Tyrosine-protein phosphatase non-receptor type 1; assay: PROTAC activity at PTP1B/CRBN in insulin treated human HepG2 cells assessed as protein degradation at 25 nM incubated for 72 hrs by Western blot analysis relative to control; format: cell-based
[12] = target: T1, Protein cereblon/Tyrosine-protein phosphatase non-receptor type 1; assay: PROTAC activity at PTP1B/CRBN in insulin treated human HepG2 cells assessed as protein degradation at 125 nM incubated for 48 hrs by Western blot analysis relative to control; format: cell-based
[13] = target: T1, Protein cereblon/Tyrosine-protein phosphatase non-receptor type 1; assay: PROTAC activity at PTP1B/CRBN in insulin treated human HepG2 cells assessed as protein degradation at 125 nM incubated for 72 hrs by Western blot analysis relative to control; format: cell-based
[14] = target: T1, Protein cereblon/Tyrosine-protein phosphatase non-receptor type 1; assay: PROTAC activity at PTP1B/CRBN in insulin treated human HepG2 cells assessed as protein degradation at 625 nM incubated for 48 hrs by Western blot analysis relative to control; format: cell-based
[15] = target: T1, Protein cereblon/Tyrosine-protein phosphatase non-receptor type 1; assay: PROTAC activity at PTP1B/CRBN in insulin treated human HepG2 cells assessed as protein degradation at 625 nM incubated for 72 hrs by Western blot analysis relative to control; format: cell-based
[16] = target: T1, Protein cereblon/Tyrosine-protein phosphatase non-receptor type 1; assay: PROTAC activity at PTP1B/CRBN in insulin treated human HepG2 cells assessed as protein degradation at 1250 nM incubated for 48 hrs by Western blot analysis relative to control; format: cell-based
[17] = target: T1, Protein cereblon/Tyrosine-protein phosphatase non-receptor type 1; assay: PROTAC activity at PTP1B/CRBN in insulin treated human HepG2 cells assessed as protein degradation at 1250 nM incubated for 72 hrs by Western blot analysis relative to control; format: cell-based
[18] = target: T1, Protein cereblon/Tyrosine-protein phosphatase non-receptor type 1; assay: PROTAC activity at PTP1B/CRBN in insulin treated human HepG2 cells assessed as protein degradation half life at 500 nM by Western blot analysis; format: cell-based
[19] = target: T1, Protein cereblon/Tyrosine-protein phosphatase non-receptor type 1; assay: PROTAC activity at PTP1B/CRBN in insulin treated human HepG2 cells assessed as protein degradation at 250 to 500 nM incubated for 24 hrs by Western blot analysis; format: cell-based; conditions: dose 250-500 nM
[20] = target: Protein cereblon/Tyrosine-protein phosphatase non-receptor type 6 (Homo sapiens) (UniProt P29350+Q96SW2); assay: PROTAC activity at SHP1/CRBN in insulin treated human HepG2 cells assessed as protein degradation at 250 to 500 nM incubated for 24 hrs by Western blot analysis; format: cell-based; conditions: dose 250-500 nM
[21] = target: Protein cereblon/Tyrosine-protein phosphatase non-receptor type 11 (Homo sapiens) (UniProt Q06124+Q96SW2); assay: PROTAC activity at SHP2/CRBN in insulin treated human HepG2 cells assessed as protein degradation at 250 to 500 nM incubated for 24 hrs by Western blot analysis; format: cell-based; conditions: dose 250-500 nM
[22] = target: Protein cereblon/Tyrosine-protein phosphatase non-receptor type 22 (Homo sapiens) (UniProt Q9Y2R2+Q96SW2); assay: PROTAC activity at LYP/CRBN in insulin treated human HepG2 cells assessed as protein degradation at 250 to 500 nM incubated for 24 hrs by Western blot analysis; format: cell-based; conditions: dose 250-500 nM
[23] = target: Protein cereblon/Receptor-type tyrosine-protein phosphatase C (Homo sapiens) (UniProt P08575+Q96SW2); assay: PROTAC activity at CD45/CRBN in insulin treated human HepG2 cells assessed as protein degradation at 250 to 500 nM incubated for 24 hrs by Western blot analysis; format: cell-based; conditions: dose 250-500 nM
[24] = target: T1, Protein cereblon/Tyrosine-protein phosphatase non-receptor type 1; assay: PROTAC activity at PTP1B/CRBN in insulin treated human HepG2 cells assessed as protein degradation at 100 nM incubated for 24 hrs in presence of pomalidomide by Western blot analysis; format: cell-based
[25] = target: T1, Protein cereblon/Tyrosine-protein phosphatase non-receptor type 1; assay: PROTAC activity at PTP1B/CRBN in insulin treated human HepG2 cells assessed as protein degradation at 100 nM incubated for 24 hrs in presence of […] by Western blot analysis; format: cell-based
[26] = target: T1, Protein cereblon/Tyrosine-protein phosphatase non-receptor type 1; assay: PROTAC activity at PTP1B/CRBN in insulin treated human HepG2 cells assessed as protein degradation at 100 nM incubated for 24 hrs in presence of MG-132 by Western blot analysis; format: cell-based
HepG2 [27] = assay: Hypoglycemic activity in human HepG2 cells assessed as upregulation of IRS-1 expression at 250 to 500 nM incubated for 24 hrs by Western blot analysis; format: functional, cell-based; conditions: dose 250-500 nM
HepG2 [28] = assay: Hypoglycemic activity in human HepG2 cells assessed as upregulation of PI3K expression at 250 to 500 nM incubated for 24 hrs by Western blot analysis; format: functional, cell-based; conditions: dose 250-500 nM
HepG2 [29] = assay: Hypoglycemic activity in human HepG2 cells assessed as upregulation of Akt phosphorylation at 250 to 500 nM incubated for 24 hrs by Western blot analysis; format: functional, cell-based; conditions: dose 250-500 nM
Mus musculus [30] = assay: Anti-diabetic activity in KM mouse assessed as reduction in area under the curve of blood glucose measured for 0 to 120 mins at 10 mg/kg single dose by oral glucose tolerance test (oGTT); format: functional; set-up: scale not given: the % may be the effect or the level left; conditions: time 0-120 min
Mus musculus [31] = assay: Anti-diabetic activity in KM mouse assessed as reduction in area under the curve of blood glucose measured for 0 to 120 mins at 20 mg/kg single dose by oral glucose tolerance test (oGTT); format: functional; set-up: scale not given: the % may be the effect or the level left; conditions: time 0-120 min
Mus musculus [32] = assay: Anti-diabetic activity in KM mouse assessed as reduction in area under the curve of blood glucose measured for 0 to 120 mins at 40 mg/kg single dose by oral glucose tolerance test (oGTT); format: functional; set-up: scale not given: the % may be the effect or the level left; conditions: time 0-120 min
Mus musculus [33] = assay: Anti-diabetic activity in KM mouse assessed as reduction in blood glucose measured for 0 to 120 mins at 40 mg/kg single dose by oral glucose tolerance test (oGTT) relative to control; format: functional; conditions: time 0-120 min

Protein cereblon/Receptor-type tyrosine-protein phosphatase C (Homo sapiens), sequence (P08575 whole entry, looked up): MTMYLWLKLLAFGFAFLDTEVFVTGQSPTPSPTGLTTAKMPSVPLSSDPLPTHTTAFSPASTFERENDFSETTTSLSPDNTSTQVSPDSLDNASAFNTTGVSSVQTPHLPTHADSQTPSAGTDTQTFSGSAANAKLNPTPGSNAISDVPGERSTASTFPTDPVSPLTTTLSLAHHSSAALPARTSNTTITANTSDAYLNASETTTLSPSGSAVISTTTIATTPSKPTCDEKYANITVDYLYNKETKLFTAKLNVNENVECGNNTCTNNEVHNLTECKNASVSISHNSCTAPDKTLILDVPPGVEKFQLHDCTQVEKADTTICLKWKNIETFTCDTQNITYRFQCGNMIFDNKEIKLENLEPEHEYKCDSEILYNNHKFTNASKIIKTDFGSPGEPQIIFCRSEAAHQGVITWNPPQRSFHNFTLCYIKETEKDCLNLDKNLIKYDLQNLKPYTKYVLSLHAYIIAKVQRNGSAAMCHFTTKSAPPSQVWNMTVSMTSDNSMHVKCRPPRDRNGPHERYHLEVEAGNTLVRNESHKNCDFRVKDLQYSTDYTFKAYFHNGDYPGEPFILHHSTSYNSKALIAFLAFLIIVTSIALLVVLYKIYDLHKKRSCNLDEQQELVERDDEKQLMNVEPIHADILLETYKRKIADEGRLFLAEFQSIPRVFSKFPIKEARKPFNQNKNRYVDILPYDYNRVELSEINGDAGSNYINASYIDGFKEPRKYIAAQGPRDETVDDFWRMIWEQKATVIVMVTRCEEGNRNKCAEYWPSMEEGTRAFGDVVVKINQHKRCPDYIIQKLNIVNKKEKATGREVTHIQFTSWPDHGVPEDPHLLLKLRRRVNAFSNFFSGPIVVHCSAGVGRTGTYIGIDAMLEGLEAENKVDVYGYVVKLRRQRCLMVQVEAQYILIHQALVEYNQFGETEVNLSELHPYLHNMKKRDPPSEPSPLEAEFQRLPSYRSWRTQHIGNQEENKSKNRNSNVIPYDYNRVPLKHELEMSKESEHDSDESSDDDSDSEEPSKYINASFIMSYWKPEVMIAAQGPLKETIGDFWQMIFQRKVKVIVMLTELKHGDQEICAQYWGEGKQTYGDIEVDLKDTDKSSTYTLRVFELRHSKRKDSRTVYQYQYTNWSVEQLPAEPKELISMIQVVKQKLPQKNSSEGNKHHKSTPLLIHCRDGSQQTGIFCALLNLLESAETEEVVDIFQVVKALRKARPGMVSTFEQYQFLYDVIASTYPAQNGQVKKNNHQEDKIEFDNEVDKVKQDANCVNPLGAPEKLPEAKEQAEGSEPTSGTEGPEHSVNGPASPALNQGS
Protein cereblon/Receptor-type tyrosine-protein phosphatase C (Homo sapiens), sequence (Q96SW2 whole entry, looked up): as the sequence (Q96SW2 whole entry, looked up) above
Protein cereblon/Tyrosine-protein phosphatase non-receptor type 6 (Homo sapiens), sequence (P29350 whole entry, looked up): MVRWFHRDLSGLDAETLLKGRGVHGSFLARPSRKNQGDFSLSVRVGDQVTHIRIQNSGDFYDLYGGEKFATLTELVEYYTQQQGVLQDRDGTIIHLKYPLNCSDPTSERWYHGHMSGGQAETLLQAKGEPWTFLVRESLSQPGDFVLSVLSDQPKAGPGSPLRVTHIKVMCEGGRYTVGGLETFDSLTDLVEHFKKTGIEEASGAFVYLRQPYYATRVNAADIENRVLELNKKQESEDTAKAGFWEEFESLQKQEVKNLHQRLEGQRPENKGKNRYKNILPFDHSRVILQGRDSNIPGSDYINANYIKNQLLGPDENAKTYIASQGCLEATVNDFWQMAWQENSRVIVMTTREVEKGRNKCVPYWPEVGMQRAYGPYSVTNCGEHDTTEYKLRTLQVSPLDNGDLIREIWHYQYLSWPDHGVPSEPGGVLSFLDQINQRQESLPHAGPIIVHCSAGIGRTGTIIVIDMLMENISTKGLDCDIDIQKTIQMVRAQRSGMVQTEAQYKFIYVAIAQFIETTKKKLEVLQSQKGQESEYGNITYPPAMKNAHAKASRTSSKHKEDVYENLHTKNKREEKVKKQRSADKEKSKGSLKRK
Protein cereblon/Tyrosine-protein phosphatase non-receptor type 6 (Homo sapiens), sequence (Q96SW2 whole entry, looked up): as the sequence (Q96SW2 whole entry, looked up) above

| SMILES | Activity [1] [%] | Activity [2] [%] | Activity [3] [%] | Activity [4] [%] | Activity [5] | DC50 [5] [nM] | Activity [6] | DC50 [6] [nM] | Activity [7] [%] | Activity [8] [%] | Activity [9] [%] | Activity [10] [%] | Activity [11] [%] | Activity [12] [%] | Activity [13] [%] | Activity [14] [%] | Activity [15] [%] | Activity [16] [%] | Activity [17] [%] | inhibition in vivo at 40 mg/kg (Mus musculus [33]) [%] | further results |
| --- | --- | --- | --- | --- | --- | --- | --- | --- | --- | --- | --- | --- | --- | --- | --- | --- | --- | --- | --- | --- | --- |
| CC1(C)CC[C@]2(C(=O)NCCCCCCOCCOCCOCCOCCCCCC(=O)Nc3cccc4c3C(=O)N(C3CCC(=O)NC3=O)C4=O)CC[C@]3(C)C(=CC[C@@H]4[C@@]5(C)CC[C@H](O)C(C)(C)[C@@H]5CC[C@]43C)[C@@H]2C1 (stereo not given in full) | 51 | 20 | 27 | 20 | Dose-Dependent Effect | 200 | Dose-Dependent Effect | 50 | 8 | < 5 | 40 | 51 | 58 | 46 | 58 | 43 | 43 | 71 | 48 | 29 | T1/2 [18]: 4 h; Activity [19]: 100%; Activity [20]: inactive; Activity [21]: inactive; Activity [22]: inactive; Activity [23]: inactive; Activity [24]: Active; Activity [25]: inactive; Activity [26]: inactive; Activity (HepG2 [27]): Active; Activity (HepG2 [28]): Active; Activity (HepG2 [29]): Active; Activity (Mus musculus [30]): 8.6%; Activity (Mus musculus [31]): 14.8%; Activity (Mus musculus [32]): 21.8% |
| C[C@H]1[C@H](C)CC[C@]2(C(=O)NCCCOCCOCCOCCCNc3cccc4c3C(=O)N(C3CCC(=O)NC3=O)C4=O)CC[C@]3(C)C(=CC[C@@H]4[C@@]5(C)CC[C@H](O)C(C)(C)[C@@H]5CC[C@]43C)[C@H]12 (stereo not given in full) | 37 | 51 | 29 | 36 | – | – | – | – | – | – | – | – | – | – | – | – | – | – | – | 15.3 | – |
| C[C@H]1[C@H](C)CC[C@]2(C(=O)NCCCCCCOCCOCCOCC(=O)Nc3cccc4c3C(=O)N(C3CCC(=O)NC3=O)C4=O)CC[C@]3(C)C(=CC[C@@H]4[C@@]5(C)CC[C@H](O)C(C)(C)[C@@H]5CC[C@]43C)[C@H]12 (stereo not given in full) | 83 | 46 | 53 | < 5 | Dose-Dependent Effect | 250 | Dose-Dependent Effect | 40 | 8 | 33 | 57 | 33 | 50 | 17 | 55 | 21 | 49 | 77 | 56 | 18.3 | – |

— ChEMBL document CHEMBL5543175, “Discovery of Selective Proteolysis-Targeting Chimera Degraders Targeting PTP1B as Long-Term Hypoglycemic Agents” (J Med Chem, 2024)
